Assay: Human HepG2 cell viability assay in 384 well format
Type: toxicity, cell-based
Parameters: dose 125 nL, time 70.5 hour; concentration not given beside the values
Details: HepG2 cells, read-out: Inhibition

| Compound | cytotoxicity at 70.5 h [%] |
| --- | --- |
| CCn1cc(CN2CCCN(C(=O)CCSC)CC2)cn1 | -1.89 |
| CC(C)Oc1ccc(Cl)c(C(=O)N2CCN(CCO)CC2)n1 | -12.1 |
| COc1c(CNCC(O)c2ccccc2F)c(C(C)C)nn1C (centres undefined) | 21.4 |
| CCn1cc(CN2CCCN(C(=O)CCc3cccs3)CC2)cn1 | -12.3 |
| CCn1cc(CN2CCCN(C(=O)CCc3ccccc3)CC2)cn1 | -12.3 |
| COCCN1CCN(Cc2ccc(OCc3nccn3C)cc2)CC1 | -14.3 |
| CC(=O)N1CCN(Cc2coc(-c3cccc(F)c3)n2)CC1 | -19.9 |
| CCn1cc(CN2CCCN(C(=O)CCn3cc(C)cn3)CC2)cn1 | -12.3 |
| O=C(c1ccc2[nH]nnc2c1)N1CCC(Nc2cccnn2)CC1 | 10.7 |
| CC(C)Cc1cc(NC(=O)c2ccccc2)n(C)n1 | -15.4 |
| O=C(NCC1COC2(CCOCC2)O1)c1csc(-c2cccc(Cl)c2)n1 (centres undefined) | -20.8 |
| CCn1cc(CN2CCCN(C(=O)CCc3nccs3)CC2)cn1 | -12.4 |
| COc1ccc(-c2nc(C(=O)NCC3CCOC3)cs2)cc1OC (centres undefined) | -7.66 |
| CCOc1ccc(-c2nc(C(=O)NCC3CCOC3)cs2)cc1 (centres undefined) | -7.97 |
| CCOc1ccc(Cl)c(C(=O)N2CCN(C(=O)OC)CC2)n1 | -14.3 |
| CCOc1ccc(Cl)c(C(=O)N2CCN(c3ncccn3)CC2)n1 | -12.1 |
| CC(=O)N1CCN(Cc2ccc(OCc3nccn3C)cc2)CC1 | -8.75 |
| COc1ccc(C(=O)Nc2cc(CC(C)C)nn2C)cc1 | 7.52 |
| COc1ccccc1C(=O)Nc1cc(CC(C)C)nn1C | -3.94 |
| CC(C)Cc1cc(NC(=O)c2ccccn2)n(C)n1 | -10.2 |

| Compound | cytotoxicity at 70.5 h [%] |
| --- | --- |
| CC(C)Cc1cc(NC(=O)c2ccncc2)n(C)n1 | -11.6 |
| Cc1nc2cc(O)nn2c(C)c1CCC(=O)NCc1cc(Br)cs1 | -13.2 |
| O=C(c1ccc(-c2cnco2)cc1)N1CCC(Nc2cccnn2)CC1 | -4.21 |
| O=C(c1ccc2cc[nH]c2c1)N1CCC(Nc2cccnn2)CC1 | -4.46 |
| CNC(=O)c1ccc(C(=O)N2CCCC(n3ccnc3)C2)cn1 (centres undefined) | -15.9 |
| Cc1cnn(C2CCCN(C(=O)c3ccc(-n4cccn4)nc3)C2)c1 (centres undefined) | -11.3 |
| Cc1oc(C(=O)O)cc1S(=O)(=O)Nc1ccc(Cl)cc1F | -0.71 |
| Cc1oc(C(=O)O)cc1S(=O)(=O)Nc1ccc(Br)cc1Cl | -16.9 |
| Cc1oc(C(=O)O)cc1S(=O)(=O)Nc1cc(Br)ccc1F | -7.4 |
| COC(=O)c1cccn1C1CCN(C(=O)c2c(C)noc2C)CC1 | 3.97 |
| CC(C)N(C)CC(=O)N(C)C(c1cccc(F)c1)c1ccccn1 (centres undefined) | 40.9 |
| COc1c(C)cnc(CN2CCC(N(C)C(=O)C(C)OC)CC2)c1C (centres undefined) | 7.6 |
| CC(=O)N(C)C(c1cccc(F)c1)c1ccccn1 (centres undefined) | 8.62 |
| c1csc(N2CCCN(Cc3noc(C4CC4)n3)CC2)n1 | -11.8 |
| Cc1ccc(NC2CCN(C(=O)c3cnn(C(C)(C)C)c3)CC2)nn1 | -14.1 |
| CCOCCCC(=O)N(C)C(c1cccc(F)c1)c1ccccn1 (centres undefined) | -23.5 |
| COCCN1CCC(NCc2ccc(Cl)cc2)C1 (centres undefined) | -11.1 |
| Cc1ccc(NC2CCN(C(=O)c3ccnc(N(C)C)c3)CC2)nn1 | -22.6 |
| CN(C)S(=O)(=O)N(C)C(c1cccc(F)c1)c1ccccn1 (centres undefined) | -19.9 |
| Cc1nn(C)c(C)c1C1COCCN1C(=O)c1ccc(Cl)o1 (centres undefined) | 10.5 |

| Compound | cytotoxicity at 70.5 h [%] |
| --- | --- |
| Cc1ccc(NC2CCN(C(=O)c3ccncc3)CC2)nn1 | -12.4 |
| CC(C)(C)c1nc(CN2CCCN(Cc3cccs3)CC2)no1 | -18.1 |
| CCc1noc(CN2CCN(c3nccs3)CC2)n1 | 10.7 |
| COc1ncccc1NC(=O)N(Cc1ccccn1)C1CC1 | -17.7 |
| CCOCc1ccc(CNc2cncc(-n3cccn3)n2)cc1 | 8.54 |
| COCc1ccc(CNc2cncc(-n3cccn3)n2)cc1 | -9.14 |
| Cc1cc(C(=O)N2CCCC2)ccc1NCC(=O)N1CCCCC1C (centres undefined) | 7.01 |
| NS(=O)(=O)Cc1ccc(CNc2cncc(-n3cccn3)n2)cc1 | -14 |
| O=C(CNc1cc(F)ccc1OCC1CCCO1)N1CCOCC1 (centres undefined) | -0.218 |
| Cc1cc(C(=O)N2CCCCC2C)ccc1NC(=O)N1CCOCC1 (centres undefined) | -6.59 |
| O=C(Nc1cc(F)ccc1OCC1CCCO1)NC1CC1 (centres undefined) | -8.4 |
| c1ccc(CCCN2CCN(c3ccc4nncn4n3)CC2)cc1 | 0.863 |
| CCNC(=O)N(C)C(c1ccccc1)c1ccccn1 (centres undefined) | -4.29 |
| Cn1ccc(C(=O)Nc2cc(F)ccc2OCC2CCCO2)cc1=O (centres undefined) | -8.3 |
| O=C(Nc1cc(F)ccc1OCC1CCCO1)N1CCSCC1 (centres undefined) | 0.0557 |
| NC(=O)c1cc(C2CCCN(C(=O)CCc3ccccn3)C2)n[nH]1 (centres undefined) | -3.73 |
| CCOCC(O)CN1CCN(C(=O)c2cc(C)ccc2OC)CC1 (centres undefined) | -5.99 |
| NCCc1cn(Cc2ccccn2)c2ccccc12 | -5.82 |
| NCCC(=O)Nc1ccc(-c2ccccc2)cc1 | -5.02 |

Source: ChEMBL document CHEMBL3507680, “University of Dundee, Gates Library screen for HepG2 cell viability”
